Test results as given in ChEMBL document CHEMBL3046034, “Enzyme inhibitors to increase poly-3-hydroxybutyrate production by transgenic tobacco” (2002).
Activity calls are given as the source filed them. No cut-off for these calls is given here.

Key:
Nicotiana tabacum [1] = experiment: Increase of poly-3-hydroxybutyrate production in rCAB8 transgenic Nicotiana tabacum (tobacco) plastids at 0.1 to 10 uM sprayed on five-leaf stage plant once in a week measured after 2 weeks relative to control; assay type: functional, organism-based
Nicotiana tabacum [2] = experiment: Increase of poly-3-hydroxybutyrate production in BC3 transgenic Nicotiana tabacum (tobacco) plastids at 10 uM sprayed on five-leaf stage plant once in a week measured after 2 weeks relative to control; assay type: functional, organism-based
Nicotiana tabacum [3] = experiment: Increase of poly-3-hydroxybutyrate production in BC3 transgenic Nicotiana tabacum (tobacco) plastids at 1 uM sprayed on five-leaf stage plant once in a week measured after 2 weeks relative to control; assay type: functional
Nicotiana tabacum [4] = experiment: Increase of leaf dry weight in BC3 transgenic Nicotiana tabacum (tobacco) at 10 uM sprayed on five leaf stage plant once in a week measured after 1 week; assay type: functional, organism-based
Nicotiana tabacum [5] = experiment: Increase of PHA synthase level in rCAB8 transgenic Nicotiana tabacum (tobacco) at 50 uM sprayed on five leaf stage plant once in a week measured after 2 weeks by immunoblot analysis; assay type: functional, organism-based
Nicotiana tabacum [6] = experiment: Increase of poly-3-hydroxybutyrate production in rCAB8 transgenic Nicotiana tabacum (tobacco) at 50 uM sprayed on five-leaf stage plant once in a week measured after 1 week relative to control; assay type: functional
Nicotiana tabacum [7] = experiment: Increase of poly-3-hydroxybutyrate production in BC3 transgenic Nicotiana tabacum (tobacco) at 10 uM sprayed on five-leaf stage plant once in a week measured after 1 week relative to control; assay type: functional
Nicotiana tabacum [8] = experiment: Increase of PHA synthase level in BC3 transgenic Nicotiana tabacum (tobacco) at 10 uM sprayed on five leaf stage plant once in a week measured after 2 weeks by immunoblot analysis; assay type: functional, organism-based
Nicotiana tabacum [9] = experiment: Increase of poly-3-hydroxybutyrate production in rCAB8 transgenic Nicotiana tabacum (tobacco) at 50 uM sprayed on five-leaf stage plant once in a week measured after 2 weeks relative to control; assay type: functional
Nicotiana tabacum [10] = experiment: Increase of leaf dry weight in rCAB8 transgenic Nicotiana tabacum (tobacco) at 10 to 250 uM sprayed on five leaf stage plant once in a week measured after 2 weeks; assay type: functional, organism-based
Nicotiana tabacum [11] = experiment: Increase of poly-3-hydroxybutyrate production in BC3 transgenic Nicotiana tabacum (tobacco) at 2 to 50 uM sprayed on five-leaf stage plant once in a week measured after 2 weeks relative to control; assay type: functional
Nicotiana tabacum [12] = experiment: Increase of leaf dry weight in BC3 transgenic Nicotiana tabacum (tobacco) sprayed on five-leaf stage plant once in a week measured after 2 weeks; assay type: functional, organism-based
Nicotiana tabacum [13] = experiment: Increase of poly-3-hydroxybutyrate production in rCAB8 transgenic Nicotiana tabacum (tobacco) plastids at 50 uM sprayed on five-leaf stage plant once in a week measured after 2 weeks relative to cytosol; assay type: functional
Nicotiana tabacum [14] = experiment: Increase of poly-3-hydroxybutyrate production in BC3 transgenic Nicotiana tabacum (tobacco) plastids at 10 uM sprayed on five-leaf stage plant once in a week measured after 2 weeks relative to cytosol; assay type: functional
Nicotiana tabacum [15] = experiment: Increase of poly-3-hydroxybutyrate production in BC3 transgenic Nicotiana tabacum (tobacco) at 10 uM sprayed on five leaf stage plant once in a week measured after 2 weeks relative to control; assay type: functional

| SMILES | Activity (Nicotiana tabacum [1]) | Activity (Nicotiana tabacum [2]) | Activity (Nicotiana tabacum [3]) | Activity (Nicotiana tabacum [4]) | Activity (Nicotiana tabacum [5]) | Activity (Nicotiana tabacum [6]) | Activity (Nicotiana tabacum [7]) | Activity (Nicotiana tabacum [8]) | Activity (Nicotiana tabacum [9]) | Activity (Nicotiana tabacum [10]) | Activity (Nicotiana tabacum [11]) | Activity (Nicotiana tabacum [12]) | fold change (FC) (Nicotiana tabacum [13]) | fold change (FC) (Nicotiana tabacum [14]) | Activity (Nicotiana tabacum [15]) |
| --- | --- | --- | --- | --- | --- | --- | --- | --- | --- | --- | --- | --- | --- | --- | --- |
| CC[C@H](C)C(=O)O[C@H]1CCC=C2C=C[C@H](C)[C@H](CC[C@@H]3C[C@@H](O)CC(=O)O3)[C@H]21 [MEVASTATIN] | Active | inactive | 192% | – | – | – | – | – | – | – | – | – | – | – | – |
| CC(Oc1ccc(Oc2cnc3cc(Cl)ccc3n2)cc1)C(=O)O (stereo not given) [QUIZALOFOP] | – | – | – | Active | Active | 120% | 150% | Active | 150% | Active | 170% | Dose-dependent effect | 2.5 | 2.5 | 170% |
